Measured values taken from patent publication US20070173488A1, “Pyrazolothiazole Protein Kinase Modulators” (SGX Pharmaceuticals, Inc., priority 2005, published 2007).

Key:
[1] = system: GTL16 cells; assay: 96-well XTT cell survival assay (GTL16 cells); assay type: cell-based; details: Homo sapiens, GTL 16, 72 hours
Method: GTL16 cells were maintained in DMEM Medium supplemented with 10% fetal bovine serum (FBS) 2 mM L-Glutamine and 100 units penicillin/100 μg streptomycin, at 37° C. in 5% CO2.
Compounds were tested in the following assays in duplicate.
96-well XTT assay (GLT16 cells): One day prior to assay the growth media was aspirated off and assay media was added to cells. On the day of the assay, the cells were grown in assay media containing various concentrations of compounds (duplicates) on a 96-well flat bottom plate for 72 hours at 37° C. in 5% CO2. The starting cell number was 5000 cells per well and volume was 120 μl. At the end of the 72-hour incubation, 40 μl of XTT labeling mixture (50:1 solution of sodium 3′-[1-(phenylaminocarbonyl)-3,4-tetrazolium]-bis (4-methoxy-6-nitro) benzene sulfonic acid hydrate and Electron-coupling reagent: PMS (N-methyl dibenzopyrazine methyl sulfate) were added to each well of the plate. After an additional 5 hours of incubation at 37° C., the absorbance reading at 450 nm with a background correction of 650 nm was measured with a spectrophotometer.

[2] = target: T1, T315I Abl (Mus musculus, UniProt P00520, T315I); assay: cAbl Luminescence-based Enzyme Assay (Kinase-Glo); assay type: biochemical
T1 construct: The c-Abl T315I KD (kinase domain) was purified as follows; made in house; host or cells: E. coli BL21(DE3) pSA0145 (lambda phosphatase co-expression) or BL21(DE3)Codon+RIL
T1 sequence (P00520 242-493 T315I limits assumed): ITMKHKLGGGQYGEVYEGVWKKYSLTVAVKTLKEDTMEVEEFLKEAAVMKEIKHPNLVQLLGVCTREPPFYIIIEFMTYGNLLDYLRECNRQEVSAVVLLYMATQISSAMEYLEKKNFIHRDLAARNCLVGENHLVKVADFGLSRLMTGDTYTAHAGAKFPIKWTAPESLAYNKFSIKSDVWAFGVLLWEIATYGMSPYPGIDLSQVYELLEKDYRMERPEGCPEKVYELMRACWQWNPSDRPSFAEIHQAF
From the text: Homogeneous luminescence-based inhibitor screening assays were developed for c-Abl, MET, AurA, and PDK1 kinases (among others). Each of these assays made use of an ATP depletion assay (Kinase-Glo™, Promega Corporation, Madison, Wis.) to quantitate kinase activity. The Kinase-Glo™ format uses a thermostable luciferase to generate luminescent signal from ATP remaining in solution following the kinase reaction. The luminescent signal is inversely correlated with the amount of kinase activity.
Dose response was analyzed using the equation: y=min+{(max−min)/(1 +10^[compound]-logIC50)}, where y is the observed initial slope, max=the slope in the absence of inhibitor, min=the slope at infinite inhibitor, and the IC50 is the [compound] that corresponds to ½ the total observed amplitude (Amplitude=max−min).
An open-reading frame for c-Abl was amplified from a Mus musculus (mouse) cDNA library prepared from freshly harvested mouse liver using a commercially available kit (Invitrogen) by PCR using the following primers: […]
The c-Abl T315I KD (kinase domain) was purified as follows. Cells were collected by centrifugation, lysed in diluted cracking buffer (50 mM Tris HCl, pH 7.5, 500 mM KCl, 0.1% Tween 20, 20 mM Imidazole, with sonication, and centrifuged to remove cell debris. The soluble fraction was purified over an IMAC column charged with nickel (Pharmacia, Uppsala, Sweden), and eluted under native conditions with a gradient of 20 mM to 500 mM imidazole in 50 mM Tris, pH7.8, 500 mM NaCl, 10 mM methionine, 10% glycerol. The protein was then further purified by gel filtration using a Superdex 75 preparative grade column equilibrated in GF5 buffer (10 mM HEPES, pH7.5, 10 mM methionine, 500 mM NaCl, 5 mM DTT, and 10% glycerol). Fractions containing the purified c-Abl T315I KD kinase domain were pooled. The protein obtained was 98% pure as judged by electrophoresis on SDS polyacrylamide gels. […] The protein was then dephosphorylated with Shrimp Alkaline Phosphatase (MBI Fermentas, Burlington, Canada) under the following conditions: 100U Shrimp Alkaline Phosphatase/mg of c-Abl T315I KD, 100 mM MgCl2, and 250 mM additional NaCl. The reaction was run overnight at 23° C. The protein was determined to be unphosphorylated by Mass spectroscopic analysis. Any precipitate was spun out and the soluble fraction was separated from reactants by gel filtration using a Superdex 75 preparative grade column equilibrated in GF4 buffer (10 mM HEPES, pH7.5, 10 mM methionine, 150 mM NaCl, 5 mM DTT, and 10% glycerol).
cAbl Luminescence-based Enzyme Assay
Materials: Abl substrate peptide=EAIYAAPFAKKK-OH (Biopeptide, San Diego, Calif.), ATP (Sigma Cat#A-3377, FW=551), HEPES buffer, pH 7.5, Bovine serum albumin (BSA) (Roche 92423420), MgCl2, Staurosporine (Streptomyces sp. Sigma Cat#85660-1MG), white Costar 384-well flat -bottom plate (VWR Cat#29444-088), Abl kinase (see below), Kinase-Glo™ (Promega Cat#V6712).
Stock Solutions: 10 mM Abl substrate peptide (13.4 mg/ml in miliQH2O) stored at −20° C.; 100 mM HEPES buffer, pH 7.5 (5 ml 1M stock+45ml miliQH2O); 10 mM ATP (5.51 mg/ml in dH2O) stored at −20° C. (diluted 50 μl into total of 10 ml miliQH2O daily =50 μM ATP working stock); 1% BSA (1 g BSA in 100 ml 0.1 M HEPES, pH 7.5, stored at −20° C.), 100 μM MgCl2; 200 μM Staurosporine, 2× Kinase-Glo™ reagent (made fresh or stored at −20° C.).
Standard Assay Setup for 384-well format (20 μl kinase reaction, 40 μl detection reaction): 10 mM MgCl2; 100 μM Abl substrate peptide; 0.1% BSA; 1 μl test compound (in DMSO); 0.4 μg/ml Abl kinase domain; 10 μM ATP; 100 mM HEPES buffer. Positive controls contained DMSO with no test compound. Negative controls contained 10 μM staurosporine.
The kinase reactions were initiated at time t=0 by the addition of ATP. Kinase reactions were incubated at 21° C. for 30 min, then 20 μl of Kinase-Glo™ reagent were added to each well to quench the kinase reaction and initiate the luminescence reaction. […]

SMILES | IC50 [1] | IC50 [2]
O=C(Nc1cc[nH]n1)Nc1nc2[nH]nc(-n3cncc3-c3ccccc3Cl)c2s1 [1-{3-[5-(2-Chloro-phenyl)-imidazol-1-yl]-1H-pyrazolo[3,4-d]thiazol-5-yl}-3-(1H-pyrazol-3-yl)-urea] | < 100 nM | 
O=C(Nc1nc2[nH]nc(-n3cncc3-c3ccc4ccccc4c3)c2s1)C1CC1 [Cyclopropanecarboxylic acid [3-(5-naphthalen-2-yl-imidazol-1-yl)-1H-pyrazolo[3,4-d]thiazol-5-yl]-amide] |  | 1000 to 10000 nM
O=C(Nc1nc2[nH]nc(-n3cncc3-c3ccccc3)c2s1)C1CC1 [Cyclopropanecarboxylic acid [3-(5-phenyl-imidazol-1-yl)-1H-pyrazolo[3,4-d]thiazol-5-yl]-amide] | 1000 to 10000 nM | 100 to 1000 nM
O=C(Nc1nc2[nH]nc(-n3cncc3-c3ccccn3)c2s1)C1CC1 [Cyclopropanecarboxylic acid [3-(5-pyridin-2-yl-imidazol-1-yl)-1H-pyrazolo[3,4-d]thiazol-5-yl]-amide] |  | < 100 nM
O=C(Nc1nc2[nH]nc(-n3cncc3-c3c(Cl)ccc(Cl)c3Cl)c2s1)C1CC1 [Cyclopropanecarboxylic acid {3-[5-(2,3,6-trichloro-phenyl)-imidazol-1-yl]-1H-pyrazolo[3,4-d]thiazol-5-yl}-amide] | 100 to 1000 nM | < 100 nM
O=C(Nc1nc2[nH]nc(-n3cncc3-c3cccc(F)c3F)c2s1)C1CC1 [Cyclopropanecarboxylic acid {3-[5-(2,3-difluoro-phenyl)-imidazol-1-yl]-1H-pyrazolo[3,4-d]thiazol-5-yl}-amide] | 1000 to 10000 nM | < 100 nM
O=C(Nc1nc2[nH]nc(-n3cncc3-c3c(Cl)cccc3Cl)c2s1)C1CC1 [Cyclopropanecarboxylic acid {3-[5-(2,6-dichloro-phenyl)-imidazol-1-yl]-1H-pyrazolo[3,4-d]thiazol-5-yl}-amide] | < 100 nM | < 100 nM
O=C(Nc1nc2[nH]nc(-n3cncc3-c3ccccc3Cl)c2s1)C1CC1 [Cyclopropanecarboxylic acid {3-[5-(2-chloro-phenyl)-imidazol-1-yl]-1H-pyrazolo[3,4-d]thiazol-5-yl}-amide] | 100 to 1000 nM | < 100 nM
NC(=O)COc1ccc(-c2cncn2-c2n[nH]c3nc(NC(=O)C4CC4)sc23)c(Cl)c1 [Cyclopropanecarboxylic acid {3-[5-(4-carbamoylmethoxy-2-chloro-phenyl)-imidazol-1-yl]-1H-pyrazolo[3,4-d]thiazol-5-yl}-amide] |  | < 100 nM
